What follows are molecules tested against T1, rat Melanin concentrating hormone receptor 1 (MCH1r) (Rattus norvegicus, UniProt P97639) (assay: MCH1 receptor radioligand binding, membranes from HEK293 cells, 125I-MCH). Details: HEK293 cell membranes stably expressing rat MCH1r, room temperature, 60 minutes.
T1 construct: expressed in transfected cells
Description: (§1) Non-specific binding was subtracted from all values determined. Maximum binding was that determined in the absence of any competitor following subtraction of the value determined for non-specific binding. Binding of compounds at various concentrations was plotted according to the equation y=A+((B−A)/1+((C/x)ˆAD))) and IC50 estimated where • A is the bottom plateau of the curve i.e. the final minimum y value • B is the top of the plateau of the curve i.e. the final maximum y value • C is the x value at the middle of the curve. This represents the log EC50 value when A+B=100 • D is the slope factor. x is the original known x values. y is the original known y values.
Assays were also performed on membranes prepared from HEK293 cells stably expressing the rat Melanin concentrating hormone receptor 1 (MCH1r) (Lembo et al. Nature Cell Biol 1 267-271). Assays were performed in a 96-well plate format in a final reaction volume of 200 μl per well. […] Radioligand retained on the filters was quantified using a1450 Microbeta TRILUX (Wallac, Finland).

T1 sequence (P97639 whole entry): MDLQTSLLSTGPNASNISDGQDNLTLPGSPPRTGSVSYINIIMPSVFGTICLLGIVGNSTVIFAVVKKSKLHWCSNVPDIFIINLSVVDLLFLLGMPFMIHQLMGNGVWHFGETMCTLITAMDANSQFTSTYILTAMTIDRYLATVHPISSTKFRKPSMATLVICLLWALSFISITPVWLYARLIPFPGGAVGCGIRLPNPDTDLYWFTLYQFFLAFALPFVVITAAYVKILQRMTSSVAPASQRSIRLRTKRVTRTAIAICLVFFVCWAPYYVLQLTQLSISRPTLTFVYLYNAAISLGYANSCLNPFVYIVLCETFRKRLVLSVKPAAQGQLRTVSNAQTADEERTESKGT

IC50 | SMILES
79 nM | Cc1cc(N[C@H]2CC[C@H](NCc3cn(C)c4ccccc34)C2)nc2ccc(F)cc12 [Example 6, (1S,3S)-N-(6-fluoro-4-methylquinolin-2-yl)-N′-[(1-methyl-1H-indol-3-yl)methyl]cyclopentane-1,3-diamine]

Each molecule was assayed against T2, human Melanin concentrating hormone receptor 1 (MCH1r) (Homo sapiens, UniProt Q99705) (assay: MCH1 receptor radioligand binding, membranes from CHO-K1 cells, 125I-MCH). Details: CHO-K1 cell membranes expressing human MCH1r, 30° C., 60 minutes, read-out: IC50 in human MCHr binding assay.
T2 construct: expressed in transfected cells; host or cells: CHO-K1
T2 sequence (Q99705 whole entry): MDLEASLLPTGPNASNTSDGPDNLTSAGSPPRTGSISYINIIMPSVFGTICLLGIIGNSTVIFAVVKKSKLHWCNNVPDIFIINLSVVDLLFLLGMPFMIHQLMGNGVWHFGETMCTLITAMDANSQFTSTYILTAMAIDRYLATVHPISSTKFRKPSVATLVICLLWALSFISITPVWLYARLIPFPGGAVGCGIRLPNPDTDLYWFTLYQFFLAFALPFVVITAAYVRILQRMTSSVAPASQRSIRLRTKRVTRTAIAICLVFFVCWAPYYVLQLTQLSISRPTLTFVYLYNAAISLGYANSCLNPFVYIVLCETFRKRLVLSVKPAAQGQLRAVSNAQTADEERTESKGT
Experimental: MCH1 Receptor Radioligand Binding.
Assays were performed on membranes prepared from CHO-K1 cells expressing the human Melanin concentrating hormone receptor 1 (MCH1r). Assays were performed in a 96-well plate format in a final reaction volume of 200 μl per well. Each well contained 6 μg of membrane proteins diluted in binding buffer (50 mM Tris, 3 mM MgCl2, 0.05% bovine serum albumin (BSA) and the radioligand ^125I-MCH (IM344 Amersham) was added to give 10 000 cpm (counts per minute) per well. Each well contained 2 μl of the appropriate concentration of competitive antagonist prepared in DMSO and left to stand at 30° C. for 60 minutes. Non-specific binding was determined as that remaining following incubation with 1 μM MCH (Melanin concentrating hormone, H-1482 Bachem). The reaction was terminated by transfer of the reaction to GF/A filters using a Micro96 Harvester (Skatron Instruments, Norway). Filters were washed with assay buffer. Radioligand retained on the filters was quantified using a1450 Microbeta TRILUX (Wallac , Finland).
as §1

IC50 | SMILES
26 nM | COc1cc(N[C@H]2CCC[C@H](NCc3ccsc3)C2)nc2ccc(F)cc12 [Example 5, (1S3S)-N-(6-fluoro-4-methoxyquinolin-2-yl)-N′-(3-thienylmethyl)cyclohexane-1,3-diamine]
94 nM | COc1ccc2nc(N[C@H]3CC[C@H](NCc4ccc(-c5cccs5)s4)C3)cc(C)c2c1 [Example 16, (1S,3S)-N-(2,2′-bithien-5-ylmethyl)-N′-(6-methoxy-4-methylquinolin-2-yl)cyclopentane-1,3-diamine]
560 nM | COc1ccc2nc(N3CC4CCC(C3)C4N(C)Cc3ccsc3)cc(C)c2c1 (stereo not drawn) [Example 20, 3-(6-Methoxy-4-methylquinolin-2-yl)-N-methyl-N-(3-thienylmethyl)-3-azabicyclo [3.2.1]octan-8-amine]
44 nM | COc1ccc2c(C)cc(N[C@H]3C[C@@H]4C[C@H]3[C@@H](NCc3cn(C)c5ccccc35)C4)nc2c1 [Example 32, (1S,2S,4R,6S)-N-(7-methoxy-4-methylquinolin-2-yl)-N′-[(1-methyl-1H-indol-3-yl)methyl]bicyclo[2.2.1]heptane-2,6-diamine]
830 nM | Cc1cc(N[C@H]2CC[C@H](NCc3cn(C)c4cnccc34)C2)nc2ccc(F)cc12 [Example 35, (1S,3S)-N-(6-Fluoro-4-methylquinolin-2-yl)-N′-[(1-methyl-1H-pyrrolo[2,3-c]pyridin-3-yl)methyl]cyclopentane-1,3-diamine]

— US20070185079A1, “Therapeutic agents I” (ASTRAZENECA AB, priority 2004, published 2007)
